This is an account of results in US20250074934A1, “CRYSTAL OF 4’-SUBSTITUTED NUCLEOSIDE, AND PREPARATION METHOD THEREFOR, COMPOSITION THEREOF AND USE THEREOF” (HENAN GENUINE BIOTECH CO., LTD., priority 2022, published 2025).

For orientation: EC50 means the concentration needed to bring the measured effect to its halfway point. What is called CC50 is the concentration that lowers cell viability or growth by half.

A short description of series [1]: stability of crystal forms on storage, drying or heating, checked by XRPD. The class given is physicochemical. On the procedure:
The type XVI crystal was heated to 55° C. in a nitrogen atmosphere and held for 2 to 24 h.
The type XVI crystal and the type XVII crystal were left at 60±5° C. for 5 days, respectively.
The type XVII crystal was left for 5 days under the conditions of 25° C. and 92.5±5% humidity.
The type XVIII crystal was heated to 150° C. or left for 24 h under the conditions of 25° C. and 92.5±5% humidity.
The crystal suffered from a weight loss of 13.2% when heated to 110° C., and a weight loss of 3.5% when further heated to 200° C. Three endothermic signals occurred in the range of 80° C. to 140° C. The type I crystal was heated to 55° C. under nitrogen protection and then cooled to room temperature. The sample was removed and exposed to air to test XRPD.
As the type II crystal was unstable and had been transformed after dying for a short period of time, no further studies were carried out on the type II crystal.
Under the conditions of nitrogen protection, the type IV crystal was heated to 141° C. and then tested for XRPD.
The type V crystal was subjected to the variable-temperature XRPD test.
The type VI crystal was heated to 160° C. under the nitrogen protection.
Under the nitrogen protection, the type VII crystal was heated to 130° C. and then cooled to room temperature. The sample was removed and exposed to the air to test XRPD.
Under the nitrogen protection, the type VIII crystal was heated to 160° C. and then cooled to room temperature. The sample was removed and exposed to the air to test XRPD.
The crystal was heated to 95° C. under nitrogen protection and then cooled to room temperature. The sample was removed and exposed to the air to test XRPD. […] The crystal was heated to 160° C. under the same conditions of nitrogen protection and then cooled to room temperature. The sample was removed and exposed to the air to test XRPD.
The type X crystal was subjected to the variable-temperature XRPD test.
The samples open dried at room temperature were characterized by TGA/DSC.
Meanwhile, the type XIII crystal was coated to test XRPD, and new type XIV crystal could be observed.

Series [2] can be described thus: LC-MS detection of chemical changes in the crystal. It counts as physicochemical. The note with it: obtained from type XVI crystal left at 60° C. for 5 days. On the procedure: The type XVI crystal was left at 60° C. for 5 days to obtain a type XVIII crystal, which was an anhydrous crystal.
For a further series, the system named is HIV. The note with it: cited from earlier work; for EC50: read-out: HIV inhibitory activity EC50.
The conditions of series [3]: within the tested dose range; read-out: cytotoxicity CC50; cited from earlier work.
The mark [4] stands for this setting: heated to 160° C. under nitrogen protection.

Turning to `C#C[C@]1(CO)O[C@@H](n2cnc3c(N)nc(F)nc32)[C@@H](F)[C@@H]1O` [type XVII crystal], the “crystal form after drying” value in series [1] (dried at 90° C. for 1 to 24 h) was “obtain the type XVIII crystal”. Further, the “crystal form by XRPD after storage” value in series [1] (left for 5 days at 25° C. and 92.5±5% humidity) was “type XVI crystal was obtained”.
With `C#C[C@]1(CO)O[C@@H](n2cnc3c(N)nc(F)nc32)[C@@H](F)[C@@H]1O` [type V crystal], the “variable-temperature XRPD” value in series [1] (further heated to 154° C.) was “transformed into another crystal”; in series [1] (heated to 90° C. and 130° C. under nitrogen), “substantially transformed into an amorphous crystal”. Also, in series [1] (purged with nitrogen for about 20 min), the “variable-temperature XRPD, nitrogen purge” value is “significant decrease in degree of crystallinity”.
Regarding `C#C[C@]1(CO)O[C@@H](n2cnc3c(N)nc(F)nc32)[C@@H](F)[C@@H]1O` [type XV crystal], in series [1] (heated to 120° C.), the “crystal form after heating” value was “crystal form was transformed”.
`C#C[C@]1(CO)O[C@@H](n2cnc3c(N)nc(F)nc32)[C@@H](F)[C@@H]1O` [type IX crystal]: the XRPD after heating entry was “degree of crystallinity was further decreased” in series [1] (heated to 95° C. under nitrogen, cooled to room temperature, exposed to air) and “crystal form had been transformed” in series [1] (setting [4]). Besides, the “crystallinity after closed storage” value in series [1] (left closed at room temperature for about 3 days) was “reduced degree of crystallinity”.
Take `C#C[C@]1(CO)O[C@@H](n2cnc3c(N)nc(F)nc32)[C@@H](F)[C@@H]1O` [type XIV crystal]: the “crystal form after removal from solvent” value in series [1] (removed from the solvent environment) is given as “transformed into the type XIII crystal”.
Turning to `C#C[C@]1(CO)O[C@@H](n2cnc3c(N)nc(F)nc32)[C@@H](F)[C@@H]1O` [type I crystal], the XRPD after heating entry in series [1] (heated to 55° C. under nitrogen, cooled to room temperature, exposed to air) was “diffraction peak intensity of the sample was somewhat decreased”; in series [1] (heated to 100° C. under nitrogen protection) it was “transformed into an amorphous crystal”.
On to `C#C[C@]1(CO)O[C@@H](n2cnc3c(N)nc(F)nc32)[C@@H](F)[C@@H]1O` [type XVIII crystal], for which the “crystal form by XRPD after heating” value in series [1] (heated to 150° C.) is “crystal form did not change”. For the same molecule, the “crystal form by XRPD after storage” value in series [1] (left for 24 h at 25° C. and 92.5±5% humidity) is reported as “crystal form did not change”. In series [2], the “chemical changes by LC-MS” value is “did not undergo chemical changes”.
In the case of `C#C[C@]1(CO)O[C@@H](n2cnc3c(N)nc(F)nc32)[C@@H](F)[C@@H]1O` [type XVI crystal], the “crystal form by XRPD after heating” value in series [1] (heated to 55° C. in nitrogen atmosphere, held 2 to 24 h) is listed as “type XVII crystal was also obtained”. Further, the “crystal form by XRPD after storage” value in series [1] (left at 60±5° C. for 5 days) is listed as “transformed into the type XVIII crystals”. Also, the “crystal form after vacuum drying” value in series [1] (vacuum drying at room temperature for 24 h) was “transformed into a monohydrate crystal form—type XVII crystal”.
Take `C#C[C@]1(CO)O[C@@H](n2cnc3c(N)nc(F)nc32)[C@@H](F)[C@@H]1O` [type IV crystal]: the “stability by TGA” value in series [1] (120° C.) was “unstable”. Besides, the “XRPD of dried crystal after closed storage” value in series [1] (dried crystal left closed at room temperature for about 5 days) was “increased relative intensity of the diffraction peaks and increased number of diffraction peaks”. Further, the XRPD after heating entry in series [1] (heated to 141° C. under nitrogen protection) was “transformed into a stable type III crystal”. Also, in series [1] (vacuum dried at room temperature for 15 min), the “XRPD after vacuum drying” value is “decreased relative intensity of the diffraction peaks”.
Turning to `C#C[C@]1(CO)O[C@@H](n2cnc3c(N)nc(F)nc32)[C@@H](F)[C@@H]1O` [type VII crystal], in series [1] (heated to 130° C. under nitrogen, cooled to room temperature, exposed to air), the XRPD after heating entry was “crystal form was transformed”.
On to `C#C[C@]1(CO)O[C@@H](n2cnc3c(N)nc(F)nc32)C[C@@H]1O` [Compound 1], for which the EC50 with HIV is 0.05 nM. In addition, the “increase of HIV inhibitory activity by introduction of 2-fluorine” value in the series on HIV (versus 4′-ethynyl-2′-deoxyadenosine (EdA)) is recorded as 2200 times.
Regarding `C#C[C@]1(CO)O[C@@H](n2cnc3c(N)nc(F)nc32)[C@@H](F)[C@@H]1O` [type XII crystal], the “crystal form after vacuum drying” value in series [1] (vacuum drying at room temperature for 10 min) is recorded as “transformed into an amorphous crystal”.
For the molecule `C#C[C@]1(CO)O[C@@H](n2cnc3c(N)nc(F)nc32)[C@@H](F)[C@@H]1O` [compound (3), (2R,3R,4S,5R)-5-(6-amino-2-fluoro-9H-purin-9-yl)-2-ethynyl-4-fluoro-2-(hydroxymethyl)tetrahydrofuran-3-ol], the EC50 with HIV was 0.9 nM. Further, the 50% cytotoxic concentration (CC50) in series [3] is more than 8000 nM.
For `C#C[C@]1(CO)O[C@@H](n2cnc3c(N)ncnc32)C[C@@H]1O` [EdA, 4′-ethynyl-2′-deoxyadenosine], the EC50 with HIV is 11 nM.
For `C#C[C@]1(CO)O[C@@H](n2cnc3c(N)nc(F)nc32)[C@@H](F)[C@@H]1O` [type II crystal], in series [1] (vacuum drying at room temperature for half an hour), the “crystal form after vacuum drying” value is on record as “transformed into a type III crystal”.
For `C#C[C@]1(CO)O[C@@H](n2cnc3c(N)nc(F)nc32)[C@@H](F)[C@@H]1O` [type XIII crystal], in series [1] (left in a solvent environment at room temperature), the “crystal form in solvent environment” value is reported as “transformed into the type XIV crystal”. The “crystal form after open drying” value in series [1] (open dried at room temperature for about 2 h) is on record as “crystal form was transformed”.
Turning to `C#C[C@]1(CO)O[C@@H](n2cnc3c(N)nc(F)nc32)[C@@H](F)[C@@H]1O` [type VI crystal], in series [1] (setting [4]), the XRPD after heating result was “crystal form was transformed”.
`C#C[C@]1(CO)O[C@@H](n2cnc3c(N)nc(F)nc32)[C@@H](F)[C@@H]1O` [type X crystal]: the entries for the “variable-temperature XRPD” value in series [1] (further heated to 130° C.), in series [1] (further heated to 145° C.) and in series [1] (heated to 120° C. while purging with nitrogen) were “diffraction peak intensity was significantly reduced”, “crystal form was transformed” and “position of the diffraction peak shifted”, respectively.
